In test [1] the target is T1, CC chemokine receptor 4 (CCR4) (Homo sapiens, UniProt P51679).
T1 sequence (P51679 1-360): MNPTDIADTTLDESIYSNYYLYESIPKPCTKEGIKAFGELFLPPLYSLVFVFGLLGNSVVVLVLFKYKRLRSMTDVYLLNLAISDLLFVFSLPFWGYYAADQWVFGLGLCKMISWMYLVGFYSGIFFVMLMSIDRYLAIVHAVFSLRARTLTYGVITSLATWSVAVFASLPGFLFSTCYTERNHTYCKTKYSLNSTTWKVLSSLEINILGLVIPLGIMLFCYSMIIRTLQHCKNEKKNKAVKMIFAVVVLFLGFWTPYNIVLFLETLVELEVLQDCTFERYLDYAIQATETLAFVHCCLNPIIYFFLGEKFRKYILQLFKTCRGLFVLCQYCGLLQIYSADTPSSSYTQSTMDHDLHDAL
Put plainly: inhibition of CCL22-driven chemotaxis of human iTreg in […] serum. In kind it is cell-based.

The target in test [2] is T2, CC chemokine receptor 4 (CCR4) (Mus musculus, UniProt P51680).
T2 sequence (P51680 1-360): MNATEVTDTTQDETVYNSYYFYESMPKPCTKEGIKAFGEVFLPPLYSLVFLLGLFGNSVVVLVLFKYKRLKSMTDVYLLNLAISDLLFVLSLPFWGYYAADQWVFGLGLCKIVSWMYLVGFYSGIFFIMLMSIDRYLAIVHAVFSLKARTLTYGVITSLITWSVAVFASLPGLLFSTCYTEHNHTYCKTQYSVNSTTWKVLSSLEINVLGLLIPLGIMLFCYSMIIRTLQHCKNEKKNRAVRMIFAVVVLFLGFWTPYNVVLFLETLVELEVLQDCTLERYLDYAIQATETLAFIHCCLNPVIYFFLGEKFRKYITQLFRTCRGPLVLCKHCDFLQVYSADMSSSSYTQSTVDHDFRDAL
Put plainly: inhibition of CCL22-driven chemotaxis of mouse iTreg in […] serum. It is filed as cell-based.

pIC50: −log10 of the molar value.

Usually pIC50 stands for the negative decadic logarithm of the IC50, by convention in mol/L. Higher therefore signals a low IC50. Take `C[C@H](c1ccc(Cl)cc1Cl)n1nc(C#N)c2ncc(N3CC([C@H]4CCCN(CCO)C4)C3)nc21` [CCR4-351]: the pIC50 in test [1] and in test [2] was roughly 7.40 throughout.

Values taken from PMC7692993 (Journal for Immunotherapy of Cancer, 2020).
